{"source": "patent US9775902B2", "about": "“Compounds and methods for treatment of stroke” (FIBROGEN, INC, priority 2006, dated 2017)", "key": {"[1]": {"system": "db/db mice, permanent occlusion of the MCA", "assay": "pMCAO in db/db mice: infarct volume", "assay_type": "in vivo", "conditions": "20 mg/kg i.v. immediately after MCA occlusion, 24 hours", "description": "The effect of compounds of the present invention on infarct volume and edema associated with stroke was examined in an animal model of ischemic stroke. In these studies, mice were subjected to permanent occlusion of the middle cerebral artery. Mice were anesthetized intraperitoneally with avertin (0.5 mg/g). Mice were then immobilized in a rodent stereotaxic frame (Kopf Instruments, Tujunga Calif.) and maintained with avertin as needed. The surgical area of the head was swabbed with 70% ethanol and a lateral incision was made between the right orbit and the right ear. […] The distal course of the middle cerebral artery (MCA) was visible through the translucent skull. A small burr-hole craniotomy was performed with a micro-drill (Fine Science Tools, Foster City Calif.). The meninges/dura was removed and the MCA was coagulated by bipolar diathermy. The muscle and soft tissue were replaced and the incision closed with vet-bond adhesive (3M, St. Paul Minn.). These studies were performed in two different mouse models of pMCAO as described below.\nTo evaluate the effect of compounds of the present invention on infarct volume in an animal model of diabetes, db/db mice were subjected to ischemic stroke. Eight week-old male db/db mice were subjected to permanent occlusion of the MCA as described above. […] Changes in infarct volumes were determined as described above."}, "[2]": {"system": "Wistar rats, transient MCA occlusion", "assay": "Grip strength test in rat tMCAO", "assay_type": "in vivo", "conditions": "60 mg/kg p.o. at 1.5 and 24 hours after reperfusion then 30 mg/kg every other day, days 7, 14, 21, and 28, vs non-treated control, FIG. 5", "text": "Rats subjected to cerebral ischemia following transient MCA occlusion have deficits in sensorimotor and neuromuscular function which can be assessed using various behavioral tests. (See, e.g., Aronowski et al. J Cereb Blood Flow Metab (1996) 16:705-713; and Colbourne et al. J Cereb Blood Flow Metab (2000) 20:1702-1708.) The effect of compounds of the present invention on various functional impairments associated with stroke was examined using an animal model of ischemic stroke. In this series of experiments, male Wistar rats (300 g) underwent behavioral testing after transient MCA occlusion. One day prior to MCAO surgery, the rats were trained to the grip strength meter and subjected to tactile adhesion testing. Following their training, rats were subjected to transient occlusion of the MCA in the same manner described in Example 10 above. Compound F (60 mg/kg, p.o.) was administered by oral gavage at 1.5 hours and 24 hours after reperfusion and then every other day (with a dose of 30 mk/kg, p.o.) for 28 days. […]\nGrip strength was used to assess neuromuscular function. Rat grip strength was determined using a standard rodent grip strength meter (Columbus Instruments, Columbus Ohio). […] Grip strength was assessed with a gentle consistent pull in the caudal direction. The digital reading on the meter was recorded and the mean of three trials reported. […]"}}}
{"compound": "COc1ccc(Oc2ccc3c(O)c(C(=O)NCC(=O)O)ncc3c2)cc1", "note": "[Compound F, {[4-Hydroxy-7-(4-methoxy-phenoxy)-isoquinoline-3-carbonyl]-amino}-acetic acid]", "values": [{"measurement": "reduction in infarct volume", "setting": "[1]", "result": 52, "unit": "%"}, {"measurement": "grip strength", "setting": "[2]", "result": "significantly improved"}]}
